In a melting point compilation (Tetko et al.; mined from patent text by program, amines drawn as free bases though some values may be those of a salt):

First: O=C(O)c1cc(=O)c2oc3ccc(Cl)cc3c(=O)c2n1Cc1ccccc1
Second: COC(=O)c1ccccc1CSc1c(O)cc(-c2ccccc2)oc1=O
The melting point of the first is higher: 269 to 271 °C for the first, 122 to 123 °C for the second.

First: CCn1ncc2c(Cl)c(C(N)=O)cnc21
Second: CCOC(=O)c1cn(CC)c2sc(C=O)cc2c1=O
The melting point of the first is lower: 192 to 193 °C for the first, 205 °C for the second.

First: Nc1nc2ccc(NC(=O)c3ccccc3)cc2s1
Second: COc1ccc(C(=O)Nc2ccccc2)cc1NCc1ccc(F)c(F)c1
The melting point of the first is higher: 213 to 215 °C for the first, 150 to 152 °C for the second.

C[C@@H](n1cnc2cc(N3CCN(C)CC3)ccc2c1=O)[C@](O)(Cn1cncn1)c1ccc(F)cc1F and Cn1c(=O)sc2ccc(C(c3ccc(C#N)cc3)n3cncn3)cc21 (configuration not stated) cannot be ordered by melting point: 121 to 131 °C for the first, 122 to 125 °C for the second.

Compared with CCOC(=O)C1=C(C)NC(=S)N(C(=O)OC(C)C)C1c1cccc([N+](=O)[O-])c1 (configuration not stated), CCOC(=O)C1=C(C)NC(CO)=C(C(=O)OCC)C1c1cccc([N+](=O)[O-])c1 (configuration not stated) is lower in melting point: 150 to 152 °C for the first, 141 to 142 °C for the second.

Compared with Clc1ccc2nc3c4ccccc4c4ccccc4c3nc2c1, CCNC(=O)C1CCN(c2cc(-c3ccc(Cl)cc3)nc3ccccc23)CC1 is lower in melting point: 241 to 242 °C for the first, 231 to 233 °C for the second.

First: CCc1oc2ccccc2c1C(=O)NCc1ccc2c(Br)c(OCc3nnn[nH]3)ccc2c1
Second: CCc1cc(NCc2ccc(-n3cccc3-c3nnn[nH]3)cc2)n2nccc2n1
The melting point of the first is higher: 235 to 238 °C for the first, 129 to 130 °C for the second.

Compared with C=CC(=O)OC(C#N)Cc1ccc(OC)c(OC)c1 (configuration not stated), COC(=O)c1c(OC)cc(CC(C#N)=CNc2ccccc2)cc1OC is higher in melting point: 154 to 156 °C for the first, 193 to 194 °C for the second.

Compared with CC(O)c1cc(S(N)(=O)=O)ccc1F (configuration not stated), O=S(=O)(c1ccc(Cl)cc1)C(c1ccncc1)c1cc(F)ccc1F (configuration not stated) is lower in melting point: 150 to 152 °C for the first, 126 to 127 °C for the second.

First: CC(=O)N(C1=C(NC(C)C)C(=O)c2c(cnn2C)C1=O)C(C)C
Second: CCOCc1nc2c(NC(C)=O)nc3ccccc3c2n1CC(C)(C)NS(C)(=O)=O
The melting point of the first is higher: 123 to 126 °C for the first, 75 to 76 °C for the second.

First: Cc1nc2sc(S(N)(=O)=O)cc2c(=O)n1-c1ccccc1Cl
Second: Nc1cc(Sc2cccc3cnccc23)c(Cl)cc1[N+](=O)[O-]
The melting point of the first is lower: 251 °C for the first, > 270 °C for the second.

First: CN(C(=O)OC(C)(C)C)c1cc(Oc2ccccc2N2CCCC2)ccc1N
Second: Cn1nc(CNC(=O)Nc2ccccc2)nc1NCCCOc1cccc(CN2CCCCC2)c1
The melting point of the first is higher: 136 to 138 °C for the first, 120 to 121 °C for the second.

First: COC(=O)CC[C@@H](NC(=O)[C@H](CO)NC(=O)OC(C)(C)C)C(=O)OC
Second: CCOC(=O)COc1ccc(C(=O)[C@H](Cc2ccc(OC)cc2)NC(=O)OC(C)(C)C)cc1
The melting point of the first is lower: 90 to 92 °C for the first, 95 to 97 °C for the second.

First: CC(C)n1nc(-c2sc(NC(=O)NCc3ccccc3)nc2-c2ccccc2)ccc1=O
Second: O=C(NC1N=C(c2ccccc2)c2ccccc2NC1=O)c1cccc2ccccc12 (racemic)
The melting point of the first is higher: 200 to 201 °C for the first, 162 to 167 °C for the second.

Compared with O=C1CC2(CCCC2)C(O)C(=O)N1CCCCN1CCN(c2nsc3ccccc23)CC1 (configuration not stated), O=c1[nH]n(-c2ccnc(N[C@H]3CC[C@H](O)CC3)n2)c2ccccc12 is higher in melting point: 151 °C for the first, 264 °C for the second.

First: CCOC(=O)c1[nH]c(C)c(C(C)C)c1C
Second: CCOC(=O)c1[nH]c(=O)c(CC(C)C)[n+]([O-])c1OC
The melting point of the first is lower: 105 to 108 °C for the first, 153 to 155 °C for the second.

First: CCOC(=O)C(C#N)C1(C#N)C(=O)N(Cc2ccc(Br)cc2F)c2c(C)cccc21 (configuration not stated)
Second: Cc1cc(Br)ccc1NC(=O)c1cccc(S(=O)(=O)N2CCCCCC2)c1
The melting point of the first is lower: 130 to 132 °C for the first, 177 to 179 °C for the second.

Compared with Cc1ccc(C(=O)NC(NC(=S)Nc2ccc(Cl)nc2)C(F)(F)F)cc1 (configuration not stated), COC(=O)c1ccc(-c2nnc(-c3ccc(C(F)(F)F)cc3)o2)cc1 is higher in melting point: 199 to 200 °C for the first, 216 to 217 °C for the second.

First: O=C(NCc1cccnc1)c1ccc2n1Cc1ccccc1N(C(=O)c1ccc(-c3ccccc3Cc3nnn[nH]3)cc1)C2
Second: Cc1ccc(F)cc1C(=O)Nc1ccc(C(=O)N2Cc3ccccc3Nc3ncccc32)cn1
The melting point of the first is higher: 164 to 167 °C for the first, 102 to 104 °C for the second.

Compared with O=C(c1ccccn1)c1nsc2nccn12, CC1CCN(c2nc(-c3ncccn3)cc(Cl)c2-c2c(F)cccc2Cl)CC1 is lower in melting point: 147 to 148 °C for the first, 129 °C for the second.

First: CCCc1c(OCC(O)CSc2nnc(SCC(=O)O)s2)ccc(C(C)=O)c1O (configuration not stated)
Second: CCCCOc1ccc(C(=O)O)c(OC)c1
The melting point of the first is lower: 72 to 75 °C for the first, 94 to 96 °C for the second.

Compared with CC(C)(C)OC(=O)N1CCC2(CC1)CC(=O)N(OCCO)C2=O, CC1=C(C(=O)OC(C)(C)C)C(c2cccc(Br)c2)C(C(=O)OC(C)(C)C)=C(C)N1 is higher in melting point: 97 to 98 °C for the first, 195 to 196 °C for the second.

Compared with COc1cccc2c1OC(C(=O)N1CCC(NC(=O)Nc3ccccc3)CC1)CC2 (configuration not stated), Oc1ccc(C2CCC(NCC(O)Cc3ccccc3)CC2)cc1 (racemic) is lower in melting point: 215 to 216 °C for the first, 52 to 57 °C for the second.

First: CCC1NC(C(=O)O)Cc2c1[nH]c1ccccc21 (configuration not stated)
Second: O=C(O)C1CNC(C(=O)O)c2[nH]c3ccccc3c21 (configuration not stated)
The melting point of the first is higher: 236 to 237 °C for the first, 230 to 231 °C for the second.

First: O=C(O)C1CC2CCCCC2CN1C(S)c1nn[nH]n1 (configuration not stated)
Second: COc1ccc(C2=NN(CCCCCCBr)C(=O)[C@H]3CCCC[C@@H]23)cc1OC (relative stereo)
The melting point of the first is higher: 165 to 172 °C for the first, 74 to 75 °C for the second.

First: Cc1ccc(C)c(OCc2ccccc2C(Cl)Cl)c1
Second: Cc1cc(Sc2ccccc2)ccc1[N+](=O)[O-]
The melting point of the first is lower: 62 to 65 °C for the first, 69 to 75 °C for the second.

First: CCCCCCN1CC(C(=O)OC)N(S(=O)(=O)c2ccc(-c3ccc(Br)cc3)cc2)CC1=O (configuration not stated)
Second: CCc1cccc(NS(=O)(=O)c2ccc(N3CCNC3=O)cc2)c1
The melting point of the first is lower: 127 to 129 °C for the first, 188 to 190 °C for the second.

First: O=C(NC12CC3CC(CC(C3)C1)C2)c1cc(O)c(O)cc1[N+](=O)[O-]
Second: CC(c1cc(Cl)cc([N+](=O)[O-])c1O)c1cc(Br)cc([N+](=O)[O-])c1O (configuration not stated)
The melting point of the first is higher: 250 to 255 °C for the first, 161 °C for the second.

First: O=c1[nH]nc(-c2cccc([N+](=O)[O-])c2)c2ncccc12
Second: O=C(Nc1ccc(-n2nc(C(F)(F)F)cc2C(F)(F)F)cc1)c1cccc([N+](=O)[O-])c1
The melting point of the first is higher: 302 °C for the first, 203 to 204 °C for the second.

First: O=C1C=C(NC(=O)C(=O)c2cn(Cc3cc(C(F)(F)F)cc(C(F)(F)F)c3)c3ccccc23)CO1
Second: NC(=O)CNC(=O)c1ccc(-c2cccc3cc(Cc4cccc(C(F)(F)F)c4)sc23)cc1
The melting point of the first is higher: 276 to 278 °C for the first, 134 to 136 °C for the second.

Compared with CN(C)CCOc1ccc(C(=O)c2c(-c3ccc(O)cc3)sc3cc(O)ccc23)cc1, CC(C)(C(=O)O)c1ccc2cc(OCc3ccc4ccccc4n3)ccc2c1 is higher in melting point: 141 to 144 °C for the first, 207 to 209 °C for the second.

First: CC(CCCCN(C)c1ccccc1)NCC(O)c1ccc(O)c(C(N)=O)c1 (configuration not stated)
Second: CC(C)NCC(O)COc1cccc2c1C(=Cc1ccccc1)C(=O)N2 (configuration not stated)
The melting point of the first is lower: 157 to 160 °C for the first, 163 to 165 °C for the second.

First: CCn1cc(-c2ccc(O)cc2)nc1SC
Second: CC(=Nc1ccc(C2=NNC(=O)CC2C)cc1)c1ccc(O)cc1O (configuration not stated)
The melting point of the first is higher: 218 °C for the first, 185 to 190 °C for the second.

Compared with Cc1cc(N2CCCC2)c([N+](=O)[O-])c(Cl)n1, CCN(CC)c1ccc(C=O)c(OCCN2CCCCC2)c1 is lower in melting point: 151 to 156 °C for the first, 70 to 72 °C for the second.

Compared with CC(=O)N1C=CC(C(C)=O)(c2ccccc2)C=C1, COC(=O)C(CCSC)NC(=O)c1ccc(NC(=O)Cc2cn(C)cn2)cc1-c1ccccc1 (configuration not stated) is lower in melting point: 93 to 95 °C for the first, 69 to 70 °C for the second.

COc1ccc(CCN(C(C)=O)c2c(C)c(C)c3c(c2C)C(c2ccc(C(C)C)cc2)C(C)(C)O3)cc1 (configuration not stated) and Cc1c(NC(=O)CC(C)(C)C)c(C)c2c(c1-c1ccc(F)nc1)OCC2c1ccc(C(C)C)cc1 (configuration not stated) cannot be ordered by melting point: 134 to 136 °C for the first, 135 to 137 °C for the second.

First: [N-]=[N+]=Nc1c(F)c(F)c(C(=O)O)c(F)c1F
Second: Cc1nc(N2C[C@@H](C)N(Cc3ccc(C(F)(F)F)cc3)C2=O)sc1C(N)=O
The melting point of the first is higher: 140 to 141 °C for the first, 110 to 112 °C for the second.

Compared with CC(=O)c1ccc(Oc2cccnc2)cc1, CC(C)(C)OC(=O)NCCc1ccc(Oc2c(Cl)cnc(C(F)(F)F)c2Cl)cc1 is higher in melting point: 45 to 50 °C for the first, 137 to 140 °C for the second.

First: OC(c1nn(-c2c(Cl)cc(C(F)(F)F)cc2Cl)cc1C1CC1(Br)Br)C(F)(F)F (configuration not stated)
Second: CN=C(C)c1cc(Oc2ccc(C(F)(F)F)cc2Cl)ccc1[N+](=O)[O-]
The melting point of the first is lower: 119 to 121 °C for the first, 133 to 137 °C for the second.

First: CCCc1nc2c(N)nc3ccccc3c2n1OCC
Second: CCN(CC)CCNC(=O)c1cc(Cl)c2cc(I)ccc2n1
The melting point of the first is higher: 198 to 199 °C for the first, 64 to 66 °C for the second.

Compared with Fc1ccc(C=Nn2cncn2)cc1, O=C1C(=Cc2ccc(Br)cc2)CCc2cc(OCCn3ccnc3)ccc21 is higher in melting point: 118 to 120 °C for the first, 152 to 153 °C for the second.

First: Cc1cc(OCC(O)CNC(C)(C)C)ccc1-c1nc(C(F)(F)F)c[nH]1 (configuration not stated)
Second: CCOC(=O)Nc1ccc2oc(CCC(F)(F)F)cc2c1
The melting point of the first is higher: 162 to 164 °C for the first, 108 °C for the second.

First: O=C1Cc2cc(Br)cnc2N1
Second: Cc1cc2c(cc1Br)N(C1CC1)C=NS2(=O)=O
The melting point of the first is higher: 250 °C for the first, 219 to 220 °C for the second.

First: CC(=O)NNCc1c[nH]c(=S)n1[C@H]1CCc2c(F)cc(F)cc2C1
Second: CC(C)CN1CCC(CNc2ccc(Cl)cc2C(=O)Nc2ccc(Cl)cn2)CC1
The melting point of the first is higher: 144 to 153 °C for the first, 121 to 122 °C for the second.

Compared with COc1ccc2c(c1)OC(CNCCCOc1cc3ccccc3oc1=O)CO2 (configuration not stated), O=C(O)CCCCCNC(=O)S[C@@H]1CC(=O)N(Cc2ccc(Oc3ccc(F)cc3)nc2)C1 is lower in melting point: 176 to 178 °C for the first, 129 to 130 °C for the second.

First: c1ccc(Nc2ncnc3[nH]ccc23)cc1
Second: CCn1c(N)c(-c2ncc[nH]2)c(=O)c2ccc(-c3ccc(CC(=O)NCc4ccncc4)nc3)nc21
The melting point of the first is higher: 234 to 236 °C for the first, 120 °C for the second.

First: CCNC(=O)OCCCCCCCCC1Cc2c(c(OC)c(OC)c(OC)c2OC)C1
Second: C=C(c1ccc(N(CC)CC)cc1)c1ccc(N(CC)CC)cc1
The melting point of the first is lower: 85 to 86 °C for the first, 100 to 102 °C for the second.

Compared with O=C(Nc1cccc2c(NN3C(=O)CCC3=O)ccnc12)c1c(Cl)cccc1Cl, O=C(O)CN1C(=O)C(=Cc2cccc(Cl)c2)SC1=S is higher in melting point: 170 to 173 °C for the first, 227 to 229 °C for the second.

CS(=O)c1ccc(-c2coc3ccc(-c4nnc(SCc5cccc(C(F)(F)F)c5)o4)cc23)cc1 (configuration not stated) showed a melting point of 176 to 177 °C.
